# ± gives the standard deviation of the averaged measurements.
# Legend:
# Assay in all cases: area under growth-rate inhibition curve (AUC GRI) (dimensionless (GR-based AUC)); higher = less growth inhibition
# Conditions in all cases: exposure time: 72 h; concentrations: 0.1, 1, 10 uM
# [1] = tested on: BT474-LTR
# Method in brief: (§1)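 The area under the growth-rate inhibition curve was measured in six breast cancer cell line models, covering triple-negative lines and HER2+ lines, both parental and resistant to a two-drug combination. Cells were exposed to compound at 0.1, 1 or 10 µM for 72 h, fixed in 4% paraformaldehyde, and nuclei were stained with Hoechst 33342 or DAPI for imaging and counting. Day 0 plates, untreated Day 3 plates and DMSO controls served to correct growth across 2 biological replicates.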
# [2] = tested on: BT474-P
# Method in brief: as §1
# [3] = tested on: MDA-MB-231
# Method in brief: as §1
# [4] = tested on: MDA-MB-468
# Method in brief: as §1
# [5] = tested on: SKBR3-LTR
# Method in brief: as §1
# [6] = tested on: SKBR3-P
# Method in brief: as §1
SMILES,area under growth-rate inhibition curve [1],area under growth-rate inhibition curve [2],area under growth-rate inhibition curve [3],area under growth-rate inhibition curve [4],area under growth-rate inhibition curve [5],area under growth-rate inhibition curve [6]
NC(N)=NCCCC(N)C(=O)NC(CCCN=C(N)N)C(=O)N1CCCC1C(=O)N1CC(O)CC1C(=O)NCC(=O)NC(Cc1cccs1)C(=O)NC(CO)C(=O)N1Cc2ccccc2CC1C(=O)N1C(C(=O)NC(CCCN=C(N)N)C(=O)O)CC2CCCCC21 (configuration not stated) [HOE 140],1.06,1.03,1.01,1.02,1.04,1.04
O=C(CCCN1CCC(O)(c2ccc(Cl)cc2)CC1)c1ccc(F)cc1.[Cl-].[H+] [Haloperidol hydrochloride],1.07,1.03,1.04,1.04,1.05,1.01
COc1ccc([C@@H]2CC(=O)c3c(O)cc(O)cc3O2)cc1O [Hesperetin],1.02,1.01,1,0.996,1.02,1.03
CC[C@H](c1ccc(O)cc1)[C@@H](CC)c1ccc(O)cc1 [Hexestrol],1.06,1.05,1.02,0.973,0.993,0.989
Cl.Cl.NCCc1cnc[nH]1 [Histamine 2HCl],1.11,1.05,1.02,1.02,1.05,1.01
OCCOCCN1CCN(C(c2ccccc2)c2ccc(Cl)cc2)CC1.[Cl-].[Cl-].[H+].[H+] (configuration not stated) [Hydroxyzine 2HCl],1.1,1.08,1.01,1.04,1.05,0.995
CN1C2CCC1CC(OC(=O)C(CO)c1ccccc1)C2 (configuration not stated) [Hyoscyamine],1.13,1.06,1.03,1.04,1.04,1.04
NCCCCCNCC12CC3CC(CC(C3)C1)C2.[Br-].[Br-].[H+].[H+] [IEM 1754 dihydrobroMide],1.07,1.01,1.04,1.03,1.04,1.03
CC(C(O)c1ccc(O)cc1)N1CCC(Cc2ccccc2)CC1.CC(C(O)c1ccc(O)cc1)N1CCC(Cc2ccccc2)CC1.O=C(O)C(O)C(O)C(=O)O (configuration not stated) [Ifenprodil Tartrate],1.01,1.02,1.04,0.985,0.997,0.985
COc1cc(C(C)=O)ccc1OCCCN1CCC(c2noc3cc(F)ccc23)CC1 [Iloperidone],1.02,0.979,1.04,1.03,1.07,0.991
CCc1cc2c(cc1CC)CC(NC[C@H](O)c1ccc(O)c3[nH]c(=O)ccc13)C2.O=C(O)/C=C\C(=O)O [Indacaterol Maleate],1,0.978,0.903,0.93,1.01,0.955
CCCCC1=NC2(CCCC2)C(=O)N1Cc1ccc(-c2ccccc2-c2nn[nH]n2)cc1 [Irbesartan],1.063 ± 0.0091,1.032 ± 0.0013,1.042 ± 0.002,1.04 ± 0.023,1.04 ± 0.036,1.03 ± 0.019
